Data published in patent publication US4107201A, “S-Phenenyltris(thioureylene)trinaphthalenetrisulfonic acid salts” (American Cyanamid Company, priority 1977, dated 1978).
Structures can show the parent of a compound that is named as a salt.

Key:
[1] = system: hereditary angioneurotic edema; conditions: in vivo; cited from earlier work
[2] = system: complement system; conditions: cited from earlier work
[3] = system: late components of human complement (C3-C9); assay: Test, Code 035 (C3-C9 inhibitor): lysis of EAC 142 by late components of human complement; assay type: biochemical; conditions: well number in two-fold serial dilution assay; higher well number indicates higher activity
From the text: An active inhibitor protects C2 from C1 and C4; (ii) Test, Code 035 (C3-C9 inhibitor) -- This test determines the ability of the late components of human complement (C3-C9) to lyse EAC 142 in the presence of appropriate dilutions of the test compound. An active inhibitor protects EAC 142 from lysis by human C3-C9; (iii) Test, Code 036 (C-Shunt inhibitor) -- In this test human erythrocytes rendered fragile are lysed in autologous serum via the shunt pathway activated by cobra venom factor in the presence of appropriate dilutions of the test compound. Inhibition of the shunt pathway results in failure of lysis; (iv) Forssman Vasculitis Test -- Here, the well known complement dependent lesion, Forssman vasculitis, is produced in guinea pigs by intradermal injection of rabbit anti-Forssman antiserum. […]

[4] = system: whole complement; assay: Complement Level Reduction Test: serum whole complement of dosed guinea pigs by capillary tube assay; assay type: in vivo; conditions: guinea pig, vs simultaneous controls
From the text: An active inhibitor protects C2 from C1 and C4; (ii) Test, Code 035 (C3-C9 inhibitor) -- This test determines the ability of the late components of human complement (C3-C9) to lyse EAC 142 in the presence of appropriate dilutions of the test compound. An active inhibitor protects EAC 142 from lysis by human C3-C9; (iii) Test, Code 036 (C-Shunt inhibitor) -- In this test human erythrocytes rendered fragile are lysed in autologous serum via the shunt pathway activated by cobra venom factor in the presence of appropriate dilutions of the test compound. Inhibition of the shunt pathway results in failure of lysis; (iv) Forssman Vasculitis Test -- Here, the well known complement dependent lesion, Forssman vasculitis, is produced in guinea pigs by intradermal injection of rabbit anti-Forssman antiserum. The lesion is measured in terms of diameter, edema and hemorrhage and the extent to which a combined index of these is inhibited by prior intraperitoneal injection of the test compound at 200 mg/kg is then reported, unless otherwise stated; (v) Forssman Shock Test -- Lethal shock is produced in guinea pigs by an i.v. injection of anti-Forssman antiserum and the harmonic mean death time of treated guinea pigs is compared with that of simultaneous controls; (vi) Complement Level Reduction Test -- In this test, the above dosed guinea pigs, or others, are bled for serum and the complement level is determined in undiluted serum by the capillary tube method of U.S. Pat. No. 3,876,376 and compared to undosed control guinea pigs; and (vii) Cap 50 Test -- Here, appropriate amounts of the test compound are added to a pool of guinea pig serum in vitro, after which the undiluted serum capillary tube assay referred to above is run. The concentration of compound inhibiting 50% is reported.
With reference to Table I, guinea pigs weighing about 300 g were dosed intravenously (i.v.) or intraperitoneally (i.p.) with 200 mg/kg of the test compound dissolved in saline and adjusted to pH 7-8. […] The serum was tested for whole complement using the capillary tube assay. Percent inhibition was calculated by comparison with simultaneous controls. The results appear in Table I together with results of tests, code 026, 035, 036, Cap 50, % inhibition and Forssman shock.

[5] = system: total hemolytic complement activity (human serum); conditions: in vitro and in vivo, reduction in total hemolytic complement activity; cited from earlier work

NCCCCCC(=O)O [epsilon-aminocaproic acid]
use in treatment of hereditary angioneurotic edema [1]: used with success

Cc1ccc(C(=O)Nc2ccc(S(=O)(=O)O)c3cc(S(=O)(=O)O)cc(S(=O)(=O)O)c23)cc1NC(=O)c1cccc(NC(=O)Nc2cccc(C(=O)Nc3cc(C(=O)Nc4ccc(S(=O)(=O)O)c5cc(S(=O)(=O)O)cc(S(=O)(=O)O)c45)ccc3C)c2)c1 [Suramin]
use in treatment of hereditary angioneurotic edema [1]: used with success | anticomplementary effect / complement inhibition [2]: competitive inhibitor of the complement system

O=S(=O)(O)c1cc(NC(=S)Nc2cc(NC(=S)Nc3cc(S(=O)(=O)O)cc4cc(S(=O)(=O)O)cc(S(=O)(=O)O)c34)cc(NC(=S)Nc3cc(S(=O)(=O)O)cc4cc(S(=O)(=O)O)cc(S(=O)(=O)O)c34)c2)c2c(S(=O)(=O)O)cc(S(=O)(=O)O)cc2c1 [8,8',8"-[s-Phenenyltris(2-thioureylene)]tri-1,3,6-naphthalenetrisulfonic acid nonasodium salt]
C-Late 035 Wells [3]: +1 Wells | % change in serum whole complement level ([4]; 200 mg/kg i.p., 30 mins.): -81% | % change in serum whole complement level ([4]; 200 mg/kg i.p., 60 mins.): -84% | % change in serum whole complement level ([4]; 200 mg/kg i.p., 120 mins.): -91% | % change in serum whole complement level ([4]; 200 mg/kg i.v., 2 mins.): -98% | % change in serum whole complement level ([4]; 200 mg/kg i.v., 30 mins.): -92% | % change in serum whole complement level ([4]; 200 mg/kg i.v., 120 mins.): -86%

pentosan-poly-sulfoester
anticomplementary activity on human serum [5]: anticomplementary activity on human serum both in vitro and in vivo

heparin
anticomplementary effect / complement inhibition [2]: anticomplementary effect

Nc1ccc2cc(S(=O)(=O)O)cc(O)c2c1N=Nc1ccc(NC(=O)Nc2ccc(N=Nc3c(N)ccc4cc(S(=O)(=O)O)cc(O)c34)c(S(=O)(=O)O)c2)cc1S(=O)(=O)O [chlorazol fast pink, 3,3'-ureylenebis-[6-(2-amino-8-hydroxy-6-sulfo-1-naphthylazo)]benzenesulfonic acid, tetrasodium salt]
anticomplementary effect / complement inhibition [2]: anticomplementary effect

NC[C@H]1CC[C@H](C(=O)O)CC1 [tranexamic acid]
use in treatment of hereditary angioneurotic edema [1]: used with success
